The results in this text go back to patent US20080167387A1, “Microglia Facilitated Amyloidogenesis Assay” (Pfizer Inc., priority 2005, published 2008).

In one data set the test system is rat primary microglia. The data set is described as follows: Microglial viability, MTT reaction product. How it is done:
The viability of microglia was also determined by measuring the level of the tetrazolium salt 3,[4,5-dimethylthiazol-2-yl]-2,5-diphenyltetrazolium bromide (MTT) reaction product, using the method provided by Trevigen Inc. of Gaithersburg, Md.

Data set [1] concerns amyloid formation from Aβ(1-42) peptides mediated by rat primary microglia. The data set is described as follows: Microglial-facilitated amyloidogenesis (MFA) assay, thioflavin S staining. It is filed as cell-based. The settings on record: for amyloid formation mediated by microglia (thioflavin S staining) / amyloid formation mediated by rat primary microglia (thioflavin S staining): 37° C., 18 hours; for amyloid formation mediated by rat primary microglia (thioflavin S staining): 0.32 μM or 3.2 μM. How it is done: Primary rat brain microglia prepared as described in Example 1, were plated into Falcon black/clear 96 well plates at a concentration of 2×10^5 cells per well. The microglia were allowed to attach to cell walls after incubation at 37° C. for several hours to overnight. Fresh DMEM, with 10% fetal bovine serum, 0.1% penicillin/streptomycin and L-glutamine at 200 mM was used to replace the old media, while cells were gently washed to remove debris and dead cells.
[…] (The pre-treatment step is optional.) After pre-treatment, the candidate compound and Aβ (1-42) peptides were added to the pre-treated cells. The final concentration of Aβ (1-42) peptides was 10 μM. […] The final volume for each well was about 100 μl/well.
Aβ (1-42) peptides and Aβ (1-40) peptides, obtained from American Peptides of Sunnyvale, Calif., were stored at −20° C. Before use, Aβ (1-42) peptides were allowed to warm to room temperature for 15 minutes. To dissolve the Aβ (1-42) peptides, 200 μl of sterile water was added to the peptides. Each sample of peptides was vortexed to dissolve the peptides. Each sample was then diluted with 19 mls of MSFM. The final concentration of Aβ (1-42) peptides was 10 μM.
[…] After incubation, microglia were fixed with 100 μl of 95% ethanol and 5% acetic acid, which was directly poured into the media, and then incubated for 5 min. The media were poured out, and another 100 μl of fresh fixative having 95% ethanol and 5% acetic acid was added to the microglia for 10 min.
Fixed cells were stained with 100 μl thioflavin S solution, obtained from Sigma of St Louis, Mo. for approximately 3-5 min. Thioflavin S solution was 0.125 mg/ml in 40% ethanol, filtered through #1 Whatman filter paper before use.
Cells were washed twice, each time for 5 min, with 100 μl of 70% ethanol. After the washes, the cells were examined using an FITC filter under a fluorescent microscope. For each well, 3 images were collected and images were captured on a Zeiss Axiovert 100 M, with a 10× objective, using a digital CCD camera, and using MicroMax obtained from Roper Instruments of Tuscon, Ariz. Each treatment condition was run in triplicate, with 3 images collected per well to avoid areas with sparse cell growth and debris. Relative fluorescence intensity was measured.

For data set [2], the system named is intracellular cAMP in rat primary microglia. The data set is described as follows: Level of intracellular cAMP in microglia. The class given is cell-based. The settings on record: 1 μM, about 20 minutes. How it is done:
The effect on the level of intracellular cAMP in microglia by PGE2 was also investigated. Rat primary microglia were prepared using the methods described in Example 1, and were exposed to PGE2, at a concentration of 1 μM, for about 20 minutes. […] Microglial viability was investigated by measuring the MTT reaction product in microglia.

Where [3] appears, read: Example 15, prostaglandin E2 receptor agonists.
The mark [4] stands for this setting: 32 nM-10 μM, one hour prior to 10 μM Aβ(1-42).

“Also recorded” adds a separate entry of the source. Read-outs that look alike come from different tables or passages of the source.

Consider `CS(=O)(=O)NC(=O)CCC/C=C\C[C@H]1C(=O)C[C@@H](O)[C@@H]1/C=C/[C@@H](O)COc1ccccc1` [sulprostone], for which, in the data set with rat primary microglia (setting [3]), the “microglial viability (MTT reaction product)” value (“microglial viability” for short) is listed as “neither butaprost nor sulprostone had any effect”.

For `CC[C@H](C)C(=O)O[C@H]1C[C@@H](C)C=C2C=C[C@H](C)[C@H](CC[C@@H]3C[C@@H](O)CC(=O)O3)[C@H]21` [lovastatin], the “result in the MFA assay” value in data set [1] (conditions not given) is recorded as “very positively”.

As for `CCCCc1ccc(CN(CCCCCCC(=O)O)S(C)(=O)=O)cc1` [Compound II], in data set [1] (setting [4]), the “amyloid formation mediated by microglia (thioflavin S staining)” value (shortened to “amyloid formation mediated by microglia”) is on record as “inhibited”.

On to `CC[C@H](C)C(=O)O[C@H]1CCC=C2C=C[C@H](C)[C@H](CC[C@@H]3C[C@@H](O)CC(=O)O3)[C@H]21` [mevastatin], for which the “result in the MFA assay” value in data set [1] (conditions not given) is given as “very positively”.

Take `CCCC1([C@H](O)C/C=C/[C@H]2[C@H](O)CC(=O)[C@@H]2CCCCCCC(=O)OC)CCC1` [butaprost]: in data set [1] (setting [4]), the “amyloid formation mediated by microglia” value is “inhibit”. For the same molecule, in the data set with rat primary microglia (setting [3]), the “microglial viability” value is “neither butaprost nor sulprostone had any effect”.

Take `CC(C)c1c(C(=O)Nc2ccccc2)c(-c2ccccc2)c(-c2ccc(F)cc2)n1CC[C@@H](O)C[C@@H](O)CC(=O)O` [atorvastatin]: in data set [1] (conditions not given), the “result in the MFA assay” value is “very positively”.

Regarding `CC(C)(C)c1ccc(CN(Cc2cccc(OCC(=O)O)c2)S(=O)(=O)c2cccnc2)cc1` [Compound I, (3-{[(4-tert-Butyl-benzyl)-(pyridine-3-sulfonyl)-amino]-methyl}-phenoxy)-acetic acid], the “amyloid formation mediated by microglia” value in data set [1] (setting [4]) is reported as “inhibited”.

As for `CCCC(=O)Nc1ncnc2c1ncn2[C@@H]1O[C@@H]2COP(=O)(O)O[C@H]2[C@H]1OC(=O)CCC` [db-cAMP, dibutyryl-cAMP], in data set [1] (db-cAMP 8-80 μM, 8-Br cAMP 25-250 μM, from one hour prior to 10 μM Aβ(1-42)), the “amyloid formation mediated by microglia” value is “inhibited; also recorded: inhibition”. Moreover, the “microglial viability” value in the data set with rat primary microglia (Example 13, cAMP analogs) is recorded as “neither db-cAMP nor 8-Br cAMP had any effect”.

As for `CCCCC[C@H](O)/C=C/[C@H]1[C@H](O)CC(=O)[C@@H]1C/C=C\CCCC(=O)O` [PGE2, Prostaglandin E2], the “amyloid formation mediated by rat primary microglia (thioflavin S staining)” value was “able to reduce” in data set [1] (from one hour prior to 10 μM Aβ(1-42)) and “inhibitory effect” in data set [1] (from one hour prior to 10 μM Aβ(1-42), listed as prostaglandin EP2 sub-type). The “microglial viability” value with rat primary microglia is recorded as “did not lead to any decrease”. In addition, the “level of intracellular cAMP in microglia” value is listed as “significantly increased” in data set [2] and “increases” in data set [2] (listed as prostaglandin subtype EP2).

As to `NC[C@H](O)c1ccc(O)c(O)c1` [Norepinephrine], the cell-mediated amyloidogenesis entry in data set [1] (conditions not given) is “blocks”.
